Assay results: PubChem BioAssay AID256 (DTP/NCI, 2004)
Where “and” joins values, the source holds several entries; their conditions need not be identical. Identical values can stand only once. Inconclusive results and toxic doses are left out. Rule for the calls: active = survival T/C of 150% or more; inactive = T/C below 125% in these data.

Test system: CD2F1 mice, L1210 leukemia ip, survival T/C
Experiment: NCI In Vivo Anticancer Drug Screen. Data for tumor model L1210 Leukemia (intraperitoneal) in CD2F1 (CDF1) mice
Conditions: higher = longer survival
How it was run: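 Ratio T/C, where T is the treated-group value and C the vehicle-dosed control value, from mice implanted with a transplantable tumor.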

[1] = endpoint: mean survival time, dose: 12.5 mg/kg/injection, schedule: Q01DX009 (ip), vehicle: saline with Tween-80
[2] = endpoint: mean survival time, dose: 25.0 mg/kg/injection, schedule: Q01DX009 (ip), vehicle: saline with Tween-80
[3] = endpoint: mean survival time, dose: 50.0 mg/kg/injection, schedule: Q01DX009 (ip), vehicle: saline with Tween-80
[4] = endpoint: mean survival time, dose: 100.0 mg/kg/injection, schedule: Q01DX009 (ip), vehicle: saline with Tween-80

Measured: T/C

C/C=C(\C)c1cc(=O)c2c(C)cc3c(c2o1)C(=O)c1c(O)c(C2CC(C)(N(C)C)C(O)C(C)O2)cc(C2CC(N(C)C)C(O)C(C)O2)c1C3=O (stereo unspecified)
inactive: endpoint: mean survival time, dose: 0.38 mg/kg/injection, schedule: Q01DX009 (ip), vehicle: saline 102 % of control | endpoint: mean survival time, dose: 0.62 mg/kg/injection, schedule: Q01DX009 (ip), vehicle: saline 115 % of control | endpoint: mean survival time, dose: 0.63 mg/kg/injection, schedule: Q01DX009 (ip), vehicle: saline 116 % of control | endpoint: mean survival time, dose: 0.75 mg/kg/injection, schedule: Q01DX009 (ip), vehicle: saline 109 % of control | endpoint: mean survival time, dose: 1.25 mg/kg/injection, schedule: Q01DX009 (ip), vehicle: saline 113 % of control and 105 % of control | endpoint: mean survival time, dose: 1.5 mg/kg/injection, schedule: Q01DX009 (ip), vehicle: saline 113 % of control | endpoint: mean survival time, dose: 3.0 mg/kg/injection, schedule: Q01DX009 (ip), vehicle: saline 107 % of control | endpoint: mean survival time, dose: 3.13 mg/kg/injection, schedule: Q01DX009 (ip), vehicle: saline with Tween-80 98 % of control | endpoint: mean survival time, dose: 31.25 micrograms/kg/injection, schedule: Q01DX009 (ip), vehicle: saline 103 % of control | endpoint: mean survival time, dose: 62.5 micrograms/kg/injection, schedule: Q01DX009 (ip), vehicle: saline 115 % of control | endpoint: mean survival time, dose: 125.0 micrograms/kg/injection, schedule: Q01DX009 (ip), vehicle: saline 111 % of control | endpoint: mean survival time, dose: 156.25 micrograms/kg/injection, schedule: Q01DX009 (ip), vehicle: saline 119 % of control | endpoint: mean survival time, dose: 250.0 micrograms/kg/injection, schedule: Q01DX009 (ip), vehicle: saline 115 % of control | endpoint: mean survival time, dose: 500.0 micrograms/kg/injection, schedule: Q01DX009 (ip), vehicle: saline 115 % of control | endpoint: mean survival time, dose: 625.0 micrograms/kg/injection, schedule: Q01DX009 (ip), vehicle: saline 104 % of control | endpoint: mean survival time, dose: 1000.0 micrograms/kg/injection, schedule: Q01DX009 (ip), vehicle: saline 105 % of control | endpoint: mean survival time, dose: 1250.0 micrograms/kg/injection, schedule: Q01DX009 (ip), vehicle: saline 120 % of control | endpoint: mean survival time, dose: 2500.0 micrograms/kg/injection, schedule: Q01DX009 (ip), vehicle: saline 95 % of control | endpoint: median survival time, dose: 3.13 mg/kg/injection, schedule: Q01DX001 (ip), vehicle: saline with Tween-80 111 % of control | endpoint: median survival time, dose: 6.25 mg/kg/injection, schedule: Q01DX001 (ip), vehicle: saline with Tween-80 111 % of control | endpoint: median survival time, dose: 12.5 mg/kg/injection, schedule: Q01DX001 (ip), vehicle: saline with Tween-80 122 % of control | endpoint: median survival time, dose: 25.0 mg/kg/injection, schedule: Q01DX001 (ip), vehicle: saline with Tween-80 111 % of control

Cn1c(=O)c2c(nc(Br)n2CC(O)CF)n(C)c1=O (stereo unspecified)
inactive: endpoint: mean survival time, dose: 12.5 mg/kg/injection, schedule: Q01DX005 (ip), vehicle: distilled water + Tween-80 101 % of control | endpoint: mean survival time, dose: 25.0 mg/kg/injection, schedule: Q01DX005 (ip), vehicle: distilled water + Tween-80 98 % of control | endpoint: mean survival time, dose: 50.0 mg/kg/injection, schedule: Q01DX005 (ip), vehicle: distilled water + Tween-80 98 % of control | endpoint: mean survival time, dose: 100.0 mg/kg/injection, schedule: Q01DX005 (ip), vehicle: distilled water + Tween-80 101 % of control | endpoint: mean survival time, dose: 200.0 mg/kg/injection, schedule: Q01DX005 (ip), vehicle: distilled water + Tween-80 96 % of control

OCC1OC(n2ncc3c(NO)ncnc32)C(O)C1O (stereo unspecified)
inactive: endpoint: mean survival time, dose: 1.56 mg/kg/injection, schedule: Q01DX005 (ip), vehicle: water 103 % of control | endpoint: mean survival time, dose: 3.13 mg/kg/injection, schedule: Q01DX005 (ip), vehicle: water 107 % of control | endpoint: mean survival time, dose: 6.25 mg/kg/injection, schedule: Q01DX005 (ip), vehicle: water 103 % of control | endpoint: mean survival time, dose: 12.5 mg/kg/injection, schedule: Q01DX005 (ip), vehicle: water 114 % of control | endpoint: mean survival time, dose: 25.0 mg/kg/injection, schedule: Q01DX005 (ip), vehicle: water 88 % of control

O=Cc1ccc(OC(=O)Nc2cccc3ccccc23)cc1
inactive: endpoint: mean survival time, dose: 100.0 mg/kg/injection, schedule: Q04DX002 (ip), vehicle: saline with Tween-80 91 % of control | endpoint: mean survival time, dose: 200.0 mg/kg/injection, schedule: Q04DX002 (ip), vehicle: saline with Tween-80 98 % of control | endpoint: mean survival time, dose: 400.0 mg/kg/injection, schedule: Q04DX002 (ip), vehicle: saline with Tween-80 87 % of control

Cc1ccc(S(=O)(=O)NN=C2CC3CCC(C2)S3)cc1
inactive: endpoint: mean survival time, dose: 37.5 mg/kg/injection, schedule: Q01DX001 (ip), vehicle: saline with Tween-80 101 % of control | endpoint: mean survival time, dose: 75.0 mg/kg/injection, schedule: Q01DX001 (ip), vehicle: saline with Tween-80 104 % of control | endpoint: mean survival time, dose: 150.0 mg/kg/injection, schedule: Q01DX001 (ip), vehicle: saline with Tween-80 106 % of control

Nc1nnc[se]1
inactive: endpoint: mean survival time, dose: 3.12 mg/kg/injection, schedule: Q01DX009 (ip), vehicle: saline with Tween-80 102 % of control and 104 % of control | endpoint: mean survival time, dose: 6.25 mg/kg/injection, schedule: Q01DX009 (ip), vehicle: saline with Tween-80 109 % of control and 110 % of control | [1] 116 % of control and 117 % of control and 110 % of control | [2] 120 % of control | [3] 120 % of control and 98 % of control | [4] 105 % of control | endpoint: median survival time, dose: 6.25 mg/kg/injection, schedule: Q01DX009 (ip), vehicle: saline with Tween-80 106 % of control | endpoint: median survival time, dose: 12.5 mg/kg/injection, schedule: Q01DX009 (ip), vehicle: saline with Tween-80 109 % of control | endpoint: median survival time, dose: 25.0 mg/kg/injection, schedule: Q01DX009 (ip), vehicle: saline with Tween-80 108 % of control

COC(=O)c1cc2cc3c(c(O)c2c(=O)o1)OC1(Cc2c(O)c4c(c(O)c2O1)C(=O)C(OC)CC4=O)CC3O (stereo unspecified)
inactive: [1] 92 % of control | [2] 94 % of control | endpoint: mean survival time, dose: 100.0 mg/kg/injection, schedule: Q01DX001 (ip), vehicle: saline with Tween-80 91 % of control | [4] 101 % of control | endpoint: mean survival time, dose: 200.0 mg/kg/injection, schedule: Q01DX001 (ip), vehicle: saline with Tween-80 96 % of control

Clc1nc2ccccc2nc1CI
inactive: endpoint: mean survival time, dose: 100.0 mg/kg/injection, schedule: Q04DX003 (ip), vehicle: acetone 100 % of control

N#CC(NCc1ccccc1)c1ccc2c(c1)OCO2 (stereo unspecified)
inactive: [3] 98 % of control | [4] 90 % of control | endpoint: mean survival time, dose: 100.0 mg/kg/injection, schedule: Q04DX003 (ip), vehicle: saline with Tween-80 99 % of control | endpoint: mean survival time, dose: 200.0 mg/kg/injection, schedule: Q04DX003 (ip), vehicle: saline with Tween-80 108 % of control

CN1N(C(O)C(Cl)(Cl)Cl)C12CCCCC2 (stereo unspecified)
inactive: endpoint: mean survival time, dose: 12.0 mg/kg/injection, schedule: Q01DX001 (ip), vehicle: carboxymethylcellulose (CMC) 94 % of control | endpoint: mean survival time, dose: 25.0 mg/kg/injection, schedule: Q01DX001 (ip), vehicle: carboxymethylcellulose (CMC) 97 % of control | endpoint: mean survival time, dose: 50.0 mg/kg/injection, schedule: Q01DX001 (ip), vehicle: carboxymethylcellulose (CMC) 95 % of control | endpoint: mean survival time, dose: 100.0 mg/kg/injection, schedule: Q01DX001 (ip), vehicle: carboxymethylcellulose (CMC) 95 % of control

Cc1ccc([N+](=O)[O-])cc1NC(=O)Nc1onc(C)c1C
inactive: endpoint: mean survival time, dose: 12.5 mg/kg/injection, schedule: Q01DX009 (ip), vehicle: Klucel (hydroxypropylcellulose) (HPC) 89 % of control | endpoint: mean survival time, dose: 25.0 mg/kg/injection, schedule: Q01DX009 (ip), vehicle: Klucel (hydroxypropylcellulose) (HPC) 95 % of control

Nc1nc2c(c(=O)[nH]1)N(C(=S)Nc1ccccc1)C(CNc1ccc(C(=O)NC(CCC(=O)O)C(=O)O)cc1)CN2 (stereo unspecified)
inactive: endpoint: mean survival time, dose: 100.0 mg/kg/injection, schedule: Q01DX001 (ip), vehicle: saline 101 % of control | endpoint: mean survival time, dose: 200.0 mg/kg/injection, schedule: Q01DX001 (ip), vehicle: saline 101 % of control | endpoint: mean survival time, dose: 400.0 mg/kg/injection, schedule: Q01DX001 (ip), vehicle: saline 104 % of control
